Measurements from US4668630A, “Stabilized enzymatic composition” (Beckman Instruments, Inc., priority 1984, dated 1987).
Structures can show the parent of a compound that is named as a salt.

Test system: lactate dehydrogenase (LD)
Assay: LD activity of serial dilution samples on Roche Cobas UV clinical analyzer
Type: biochemical, human
Conditions: Table II, 1-20 mg/ml KO2 CCO2 K in LD SEG
Method: Aliquots of this base solution were diluted as shown in Table I with a LD SEG solution devoid of KO2 CCO2 K. The LD activity of each of the serial dilution samples was measured on a Roche Cobas brand UV clinical analyzer and the results are set forth in Table II.

effect on LD activity (in words): inhibition of LD activity
SMILES: O=C(O)C(=O)O [KO2 CCO2 K, potassium oxalate]
